# Tested on: Na^+-dependent Cl^−/HCO3^− exchanger (NCBE)
# Assay: Inhibition of the Na+-dependent Cl−/HCO3− exchanger (NCBE) in human endothelial cells (pHi recovery, BCECF fluorescence, FLIPR)
# Format: cell-based
# Conditions: for Residual activity of the NCBE at 10 μM: 10 μM compound, human endothelial cells (ECV-304), related to 100% and 0% pHi recovery controls
# Experimental: Inhibition of the Na^+-dependent Cl^−/HCO3^− exchanger (NCBE) in human endothelial cells
# Human endothelial cells (ECV-304) were detached form culture flasks with the aid of trypsin/EDTA buffer (0.05/0.02% in phosphate buffer) and, after centrifugation (100 g, 5 min), taken up in a buffered saline solution (mmol/l: 115 NaCl, 20 NH4Cl, 5 KCl, 1 CaCl2, 1 MgSO4, 20 N-(2-hydroxyethyl)-piperazine-N[…]-2-ethanesulfonic acid (HEPES), 5 glucose and 1 g/l of bovine serum albumin; pH 7.4). This cell suspension was incubated at 37 °C. for 20 min with 5 μM BCECF acetoxymethyl ester. The cells were then washed and resuspended in a sodium- and bicarbonate-free buffer solution (mmol/l: 5 HEPES, 133.8 choline chloride, 4.7 KCl, 1.25 MgCl2, 0.97 K2HPO4, 0.23 KH2PO4, 5 glucose; pH 7.4).
# For the subsequent fluorescence measurement in the FLIPR (Fluorescent Imaging Plate Reader), 100 μl of this cell suspension in each case containing 20,000 cells were added by pipette per well of a 96-well microtiter plate and this microtiter plate was centrifuged (100 g, 5 min). In the FLIPR, 100 μl of buffer solution in each case were then removed from a further prepared microtiter plate and added by pipette to each of the 96 wells of the measuring plate. In this case, for a 100% control, i.e. a recovery of the intracellular pH (pHi) by means of the NCBE, a bicarbonate- and sodium-containing buffer solution (mmol/l: 5 HEPES, 93.8 NaCl, 40 NaHCO3, 4.7 KCl, 1.25 CaCl2, 1.25 MgCl2, 0.97 Na2HPO4, 0.23 NaH2PO4, 5 glucose; pH 7.4) which contained 50 μM HOE 642 was used. For a 0% control, i.e. no pHi recovery at all, a bicarbonate-free, sodium-containing buffer solution (mmol/l: 5 HEPES, 133.8 NaCl, 4.7 KCl, 1.25 CaCl2, 1.25 MgCl2, 0.97 Na2HPO4, 0.23 NaH2PO4, 5 glucose; pH 7.4) to which 50 μM HOE 642 were also added was employed. The compounds according to the invention were added in various concentrations of the sodium- and bicarbonate-containing solution. After addition of the buffer solutions to the dye-loaded acidified cells situated in the measuring plate, the increase in the fluorescence intensity which corresponded to an increase in the pHi was determined in each well of the microtiter plate.
# The kinetics were in this case recorded at 35° C. over a period of 2 minutes. The increase in the fluorescence intensities for different concentrations of the compounds according to the invention was related to the two controls and from this the inhibitory action of the substances was determined.
# [1] = compound at 10 μM, sub-table with R7 substituent
SMILES,Residual activity % of the NCBE at 10 μM (10 μM) [%],further results
N#CNS(=O)(=O)c1ccccc1-c1ccc(CN(Cc2ccc(F)cc2)C(=O)Cc2ccc(Cl)cc2)cc1 [Example 157],24.9,–
N#CNS(=O)(=O)c1ccccc1-c1ccc(CN(CC2(c3ccccc3)CCCC2)C(=O)Cc2cccs2)cc1 [Example 392],–,"Residual activity % of the NCBE at 10 μM (compound at 10 μM, R(3) to R(7) hydrogen series): 55.6%"
CN(Cc1ccc(-c2ccccc2S(=O)(=O)NC#N)cc1)C(=O)CCCCc1cccs1 [Example 222],76.7,–
N#CNS(=O)(=O)c1ccccc1-c1ccc(CN(Cc2ccc(Cl)cc2)C(=O)c2ccccc2Cl)cc1 [Example 58],59.4,–
N#CNS(=O)(=O)c1ccccc1-c1ccc(CN(C(=O)CCOc2ccccc2)C2CCc3ccccc32)cc1 (stereo not shown) [Example 344],52.2,–
N#CNS(=O)(=O)c1ccccc1-c1ccc(CN(Cc2cccs2)C(=O)Cc2ccccc2[N+](=O)[O-])cc1 [Example 252],44.5,–
COc1ccccc1C(=O)N(CC=C(C)CCC=C(C)C)Cc1ccc(-c2ccccc2S(=O)(=O)NC#N)cc1 [Example 333],22.3,–
N#CNS(=O)(=O)c1ccccc1-c1ccc(CN(Cc2ccccc2Cl)C(=O)Cc2ccccc2Cl)cc1 [Example 291],23.7,–
N#CNS(=O)(=O)c1ccccc1-c1ccc(CN(Cc2ccccc2)C(=O)Nc2c(F)cccc2F)cc1 [Example 297],80.4,–
Cc1ccc(-c2ccc(CN(Cc3cccs3)C(=O)Cc3ccc(Cl)cc3)cc2)c(S(=O)(=O)NC#N)c1 [Example 533],–,Residual activity % of the NCBE at 10 μM [1]: 75.5%
Cc1cccc(CN(Cc2ccc(-c3ccccc3S(=O)(=O)NC#N)cc2)C(=O)Cc2cccs2)c1 [Example 311],10.4,–
COc1cccc(CN(Cc2ccc(-c3ccccc3S(=O)(=O)NC#N)cc2)C(=O)c2cc3ccccc3s2)c1 [Example 76],87.3,–
N#CNS(=O)(=O)c1ccccc1-c1ccc(CN(C(=O)Cc2cccs2)C2CCCc3ccccc32)cc1 (stereo not shown) [Example 315],23.5,–
N#CNS(=O)(=O)c1ccccc1-c1ccc(CN(Cc2ccccc2)C(=O)c2ccccc2)cc1 [Example 61],56.6,–
COC(=O)C(Cc1ccccc1)N(Cc1ccc(-c2ccccc2S(=O)(=O)NC#N)cc1)C(=O)CCCc1cccs1 (stereo not shown) [Example 193],62.8,–
N#CNS(=O)(=O)c1ccccc1-c1ccc(CN(Cc2cccc(Cl)c2)C(=O)Cc2ccc(O)cc2)cc1 [Example 285],58.8,–
N#CNS(=O)(=O)c1ccccc1-c1ccc(CN(Cc2cccc(Cl)c2)C(=O)CCS(=O)(=O)c2ccccc2)cc1 [Example 281],68.6,–
N#CNS(=O)(=O)c1ccccc1-c1ccc(CN(Cc2ccc(Cl)cc2)C(=O)Cc2cccs2)cc1 [Example 28],95.2,–
CC(=O)N(Cc1ccc(-c2ccccc2S(=O)(=O)NC#N)cc1)Cc1ccccc1Cl [Example 181],80.8,–
N#CNS(=O)(=O)c1ccccc1-c1ccc(CN(Cc2ccco2)C(=O)Cc2cccs2)cc1 [Example 139],48.5,–
N#CNS(=O)(=O)c1ccccc1-c1ccc(CN(Cc2ccccc2)C(=O)Cc2ccccc2[N+](=O)[O-])cc1 [Example 243],99.9,–
N#CNS(=O)(=O)c1ccccc1-c1ccc(CN(C(=O)CCCCc2cccs2)C2CC2)cc1 [Example 221],72.3,–
N#CNS(=O)(=O)c1ccccc1-c1ccc(CN(Cc2ccccn2)C(=O)CCCc2cccs2)cc1 [Example 188],52.3,–
N#CNS(=O)(=O)c1ccccc1-c1ccc(CN(Cc2ccncc2)C(=O)Cc2ccc(Cl)cc2)cc1 [Example 156],86.0,–
CC(C)(C)CC(=O)N(Cc1ccc(F)cc1)Cc1ccc(-c2ccccc2S(=O)(=O)NC#N)cc1 [Example 163],93.4,–

SMILES,Residual activity % of the NCBE at 10 μM (10 μM) [%],further results
COc1cccc(CN(Cc2ccc(-c3ccccc3S(=O)(=O)NC#N)cc2)C(=O)Nc2c(F)cccc2F)c1 [Example 301],87.9,–
N#CNS(=O)(=O)c1ccccc1-c1ccc(CN(Cc2cccc(Cl)c2Cl)C(=O)CCOc2ccccc2)cc1 [Example 339],46.8,–
N#CNS(=O)(=O)c1ccccc1-c1ccc(CN(Cc2cccc(-c3ccccc3)c2)C(=O)Cc2cccs2)cc1 [Example 317],14.5,–
N#CNS(=O)(=O)c1ccccc1-c1ccc(CN(Cc2cccc3ccccc23)C(=O)Cc2ccccc2Cl)cc1 [Example 293],55.1,–
COCCC(=O)N(Cc1ccc(-c2ccccc2S(=O)(=O)NC#N)cc1)Cc1ccccc1F [Example 326],25.6,–
CC(=O)N(Cc1ccc(-c2ccccc2S(=O)(=O)NC#N)cc1)Cc1ccco1 [Example 178],70.6,–
N#CNS(=O)(=O)c1ccccc1-c1ccc(CN(CCO)C(=O)Cc2cccs2)cc1 [Example 26],47.6,–
CC(C)=CCCC(C)=CCN(Cc1ccc(-c2ccccc2S(=O)(=O)NC#N)cc1)C(=O)CC1CCCCC1 [Example 353],47.9,–
N#CNS(=O)(=O)c1ccccc1-c1ccc(CN(CCc2cccs2)C(=O)Cc2ccc(Cl)cc2)cc1 [Example 150],44.7,–
Cc1ccc(-c2ccc(CN(Cc3ccccc3F)C(=O)Cc3cccs3)cc2)c(S(=O)(=O)NC#N)c1 [Example 519],–,Residual activity % of the NCBE at 10 μM [1]: 95.6%
N#CNS(=O)(=O)c1ccccc1-c1ccc(CN(Cc2ccccc2)C(=O)C(=O)c2ccco2)cc1 [Example 245],73.0,–
N#CNS(=O)(=O)c1ccccc1-c1ccc(CN(Cc2cccc3ccccc23)C(=O)Cc2cccs2)cc1 [Example 271],15.9,–
COC(=O)C(Cc1ccccc1)N(Cc1ccc(-c2ccccc2S(=O)(=O)NC#N)cc1)C(=O)Cc1ccsc1 (stereo not shown) [Example 233],68.1,–
"CS(=O)(=O)c1cc(-c2ccccc2S(=O)(=O)NC#N)ccc1CN(Cc1ccccc1)C(=O)Cc1cccs1 [Example 555, 4′-{[Benzyl-(2-thiophen-2-ylacetyl)amino]methyl}-3′-methylsulfonyl-biphenyl-2-sulfonylcyanamide]",–,Residual activity of the NCBE at 10 μM: 31%
COc1ccc(CC(=O)N(Cc2ccc(-c3ccccc3S(=O)(=O)NC#N)cc2)CC2CC2)cc1 [Example 175],93.2,–
Cc1ccc(-c2ccc(CN(CCc3ccccc3)C(=O)Cc3ccc(Cl)cc3)cc2)c(S(=O)(=O)NC#N)c1 [Example 534],–,Residual activity % of the NCBE at 10 μM [1]: 80.0%
N#CNS(=O)(=O)c1ccccc1-c1ccc(CN(CC2CCCCC2)C(=O)CCCCc2ccccc2)cc1 [Example 266],79.7,–
C[C@H](c1ccccc1)N(Cc1ccc(-c2ccccc2S(=O)(=O)NC#N)cc1)C(=O)c1cc2ccccc2s1 [Example 78],88.5,–
Cc1ccc(-c2ccc(CN(Cc3ccccc3)C(=O)Cc3cccs3)cc2)c(S(=O)(=O)NC#N)c1 [Example 513],–,Residual activity % of the NCBE at 10 μM [1]: 88.6%
C[C@H](c1ccccc1)N(Cc1ccc(-c2ccccc2S(=O)(=O)NC#N)cc1)C(=O)Cc1ccccc1 [Example 128],61.4,–
"COCCOc1cc(-c2ccccc2S(=O)(=O)NC#N)ccc1CN(Cc1ccccc1)C(=O)Cc1cccs1 [Example 560, 4′-{[Benzyl-2-(thiophen-2-yl)acetylamino]methyl}-3′-(2-methoxy)ethoxy-biphenyl-2-sulfonylcyanamide]",–,Residual activity of the NCBE at 10 μM: 8.0%
Cc1ccc(-c2ccc(CN(Cc3cccs3)C(=O)CC3CCCCC3)cc2)c(S(=O)(=O)NC#N)c1 [Example 549],–,Residual activity % of the NCBE at 10 μM [1]: 67.3%
Cc1ccc(-c2ccc(CN(Cc3cccc4ccccc34)C(=O)Cc3cccs3)cc2)c(S(=O)(=O)NC#N)c1 [Example 514],–,Residual activity % of the NCBE at 10 μM [1]: 74.9%
CC(C)NC(=O)N(Cc1ccc(-c2ccccc2S(=O)(=O)NC#N)cc1)Cc1cccc(Cl)c1 [Example 306],90.2,–
